Measured values from ChEMBL document CHEMBL1201862, “PubChem BioAssay data set” (2004).
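Assay format: 96-well plates, 48-hour exposure. At the GI50, growth is halved.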 The source made the active and inactive calls. No stated cut-off is given here; in the data, active = GI50 up to about 1.1 µM and inactive = higher.

Tests used:
Assay in all cases: inhibition of tumour cell growth, NCI panel, 48 h
786-0 = tested on: 786-0
A498 = tested on: A498
A549 = tested on: A549
ACHN = tested on: ACHN
CAKI-1 = tested on: CAKI-1
CCRF-CEM = tested on: CCRF-CEM
COLO 205 = tested on: COLO 205
DLD-1 = tested on: DLD-1
DMS-114 = tested on: DMS-114
DMS-273 = tested on: DMS-273
EKVX = tested on: EKVX
HCC 2998 = tested on: HCC 2998
HCT-116 = tested on: HCT-116
HCT-15 = tested on: HCT-15
HL-60 = tested on: HL-60
HOP-18 = tested on: HOP-18
HOP-62 = tested on: HOP-62
HOP-92 = tested on: HOP-92
HT-29 = tested on: HT-29
IGROV-1 = tested on: IGROV-1
K562 = tested on: K562
KM-20L2 = tested on: KM-20L2
KM12 = tested on: KM12
LOX IMVI = tested on: LOX IMVI
LXFL 529 = tested on: LXFL 529
M14 = tested on: M14
M19-MEL = tested on: M19-MEL
MOLT-4 = tested on: MOLT-4
Malme-3M = tested on: Malme-3M
NCI-H226 = tested on: NCI-H226
NCI-H23 = tested on: NCI-H23
NCI-H460 = tested on: NCI-H460
NCI-H522 = tested on: NCI-H522
OVCAR-3 = tested on: OVCAR-3
OVCAR-4 = tested on: OVCAR-4
OVCAR-5 = tested on: OVCAR-5
OVCAR-8 = tested on: OVCAR-8
RPMI-8226 = tested on: RPMI-8226
RXF 393 = tested on: RXF 393
SF-268 = tested on: SF-268
SF-295 = tested on: SF-295
SF-539 = tested on: SF-539
SK-MEL-28 = tested on: SK-MEL-28
SK-MEL-2 = tested on: SK-MEL-2
SK-MEL-5 = tested on: SK-MEL-5
SK-OV-3 = tested on: SK-OV-3
SN12C = tested on: SN12C
SNB-19 = tested on: SNB-19
SNB-75 = tested on: SNB-75
SNB-78 = tested on: SNB-78
SR = tested on: SR
SW-620 = tested on: SW-620
TK-10 = tested on: TK-10
U-251 = tested on: U-251
UACC-257 = tested on: UACC-257
UACC-62 = tested on: UACC-62
UO-31 = tested on: UO-31
XF498 = tested on: XF498
RXF 631 = tested on: RXF 631

COC1CC(OS(=O)(=O)c2ccc(C)cc2)C(OC(=O)c2ccccc2)C(C)O1 (centres undefined)
GI50 (786-0): > 10 µM (inactive) | GI50 (A498): > 10 µM (inactive) | GI50 (A549): > 10 µM (inactive) | GI50 (ACHN): > 10 µM (inactive) | GI50 (CAKI-1): > 10 µM (inactive) | GI50 (CCRF-CEM): > 10 µM (inactive) | GI50 (COLO 205): > 10 µM (inactive) | GI50 (DLD-1): > 10 µM (inactive) | GI50 (DMS-114): > 100 µM (inactive) | GI50 (DMS-273): > 10 µM (inactive) | GI50 (EKVX): > 10 µM (inactive) | GI50 (HCC 2998): > 10 µM (inactive) | GI50 (HCT-116): > 10 µM (inactive) | GI50 (HCT-15): > 10 µM | GI50 (HL-60): > 10 µM (inactive) | GI50 (HOP-18): > 10 µM (inactive) | GI50 (HOP-62): > 10 µM (inactive) | GI50 (HOP-92): 99.1 µM (inactive) | GI50 (HT-29): > 10 µM (inactive) | GI50 (IGROV-1): > 10 µM (inactive) | GI50 (K562): > 10 µM (inactive) | GI50 (KM-20L2): > 10 µM (inactive) | GI50 (KM12): > 10 µM (inactive) | GI50 (LOX IMVI): > 10 µM (inactive) | GI50 (LXFL 529): > 10 µM (inactive) | GI50 (M14): > 10 µM (inactive) | GI50 (M19-MEL): > 10 µM (inactive) | GI50 (MOLT-4): > 10 µM (inactive) | GI50 (Malme-3M): > 10 µM (inactive) | GI50 (NCI-H226): > 10 µM (inactive) | GI50 (NCI-H23): > 10 µM (inactive) | GI50 (NCI-H460): > 10 µM (inactive) | GI50 (NCI-H522): > 10 µM (inactive) | GI50 (OVCAR-3): > 10 µM (inactive) | GI50 (OVCAR-4): > 10 µM (inactive) | GI50 (OVCAR-5): > 10 µM (inactive) | GI50 (OVCAR-8): > 10 µM (inactive) | GI50 (RPMI-8226): > 100 µM (inactive) | GI50 (RXF 393): 88.5 µM (inactive) | GI50 (SF-268): > 100 µM (inactive) | GI50 (SF-295): > 100 µM (inactive) | GI50 (SF-539): > 10 µM (inactive) | GI50 (SK-MEL-28): > 10 µM (inactive) | GI50 (SK-MEL-2): > 10 µM (inactive) | GI50 (SK-MEL-5): > 10 µM (inactive) | GI50 (SK-OV-3): > 10 µM (inactive) | GI50 (SN12C): > 10 µM (inactive) | GI50 (SNB-19): > 10 µM (inactive) | GI50 (SNB-75): 99.5 µM (inactive) | GI50 (SNB-78): > 10 µM (inactive) | GI50 (SR): > 10 µM (inactive) | GI50 (SW-620): > 10 µM (inactive) | GI50 (TK-10): > 10 µM (inactive) | GI50 (U-251): > 10 µM (inactive) | GI50 (UACC-257): > 10 µM (inactive) | GI50 (UACC-62): > 100 µM (inactive) | GI50 (UO-31): > 10 µM (inactive) | GI50 (XF498): > 100 µM (inactive)

O=C(O)CCC1CCc2cccc3occ1c23 (centres undefined)
GI50 (786-0): > 100 µM (inactive) | GI50 (A498): > 100 µM (inactive) | GI50 (A549): > 100 µM (inactive) | GI50 (ACHN): > 100 µM (inactive) | GI50 (CAKI-1): > 100 µM (inactive) | GI50 (CCRF-CEM): > 100 µM (inactive) | GI50 (COLO 205): > 100 µM (inactive) | GI50 (DLD-1): > 100 µM (inactive) | GI50 (DMS-114): > 100 µM (inactive) | GI50 (DMS-273): > 100 µM (inactive) | GI50 (EKVX): > 100 µM (inactive) | GI50 (HCC 2998): > 100 µM (inactive) | GI50 (HCT-116): > 100 µM (inactive) | GI50 (HCT-15): > 100 µM | GI50 (HL-60): > 100 µM (inactive) | GI50 (HOP-62): > 100 µM (inactive) | GI50 (HOP-92): > 100 µM (inactive) | GI50 (HT-29): > 100 µM (inactive) | GI50 (IGROV-1): > 100 µM (inactive) | GI50 (K562): > 100 µM (inactive) | GI50 (KM-20L2): > 100 µM (inactive) | GI50 (KM12): > 100 µM (inactive) | GI50 (LOX IMVI): > 100 µM (inactive) | GI50 (LXFL 529): > 100 µM (inactive) | GI50 (M14): > 100 µM (inactive) | GI50 (M19-MEL): > 100 µM (inactive) | GI50 (MOLT-4): > 100 µM (inactive) | GI50 (Malme-3M): > 100 µM (inactive) | GI50 (NCI-H226): > 100 µM (inactive) | GI50 (NCI-H23): > 100 µM (inactive) | GI50 (NCI-H460): > 100 µM (inactive) | GI50 (NCI-H522): > 100 µM (inactive) | GI50 (OVCAR-3): > 100 µM (inactive) | GI50 (OVCAR-4): > 100 µM (inactive) | GI50 (OVCAR-5): > 100 µM (inactive) | GI50 (OVCAR-8): > 100 µM (inactive) | GI50 (RPMI-8226): > 100 µM (inactive) | GI50 (RXF 393): > 100 µM (inactive) | GI50 (RXF 631): > 100 µM (inactive) | GI50 (SF-268): > 100 µM (inactive) | GI50 (SF-295): > 100 µM (inactive) | GI50 (SF-539): > 100 µM (inactive) | GI50 (SK-MEL-28): > 100 µM (inactive) | GI50 (SK-MEL-2): > 100 µM (inactive) | GI50 (SK-MEL-5): > 100 µM (inactive) | GI50 (SK-OV-3): > 100 µM (inactive) | GI50 (SN12C): > 100 µM (inactive) | GI50 (SNB-19): > 100 µM (inactive) | GI50 (SNB-75): > 100 µM (inactive) | GI50 (SNB-78): > 100 µM (inactive) | GI50 (SW-620): > 100 µM (inactive) | GI50 (TK-10): > 100 µM (inactive) | GI50 (U-251): > 100 µM (inactive) | GI50 (UACC-257): > 100 µM (inactive) | GI50 (UACC-62): > 100 µM (inactive) | GI50 (UO-31): > 100 µM (inactive)
